Test results reported in patent US11519922B2, “Methods for identifying risk of chemotherapy-induced cardiotoxicity and targeted medical intervention” (Detroit R&D, Inc., priority 2018, dated 2022).

How the values were obtained:
sEH enzyme in H9c2 cells = biological target: T1, sEH enzyme in H9c2 cells (Rattus norvegicus, UniProt P80299); test: 14,15-DHET formation from added 14,15-EET by H9c2 cells; type: cell-based
T1 construct: host or cells: H9c2 rat cardiomyocytes
T1 sequence (P80299 1-554): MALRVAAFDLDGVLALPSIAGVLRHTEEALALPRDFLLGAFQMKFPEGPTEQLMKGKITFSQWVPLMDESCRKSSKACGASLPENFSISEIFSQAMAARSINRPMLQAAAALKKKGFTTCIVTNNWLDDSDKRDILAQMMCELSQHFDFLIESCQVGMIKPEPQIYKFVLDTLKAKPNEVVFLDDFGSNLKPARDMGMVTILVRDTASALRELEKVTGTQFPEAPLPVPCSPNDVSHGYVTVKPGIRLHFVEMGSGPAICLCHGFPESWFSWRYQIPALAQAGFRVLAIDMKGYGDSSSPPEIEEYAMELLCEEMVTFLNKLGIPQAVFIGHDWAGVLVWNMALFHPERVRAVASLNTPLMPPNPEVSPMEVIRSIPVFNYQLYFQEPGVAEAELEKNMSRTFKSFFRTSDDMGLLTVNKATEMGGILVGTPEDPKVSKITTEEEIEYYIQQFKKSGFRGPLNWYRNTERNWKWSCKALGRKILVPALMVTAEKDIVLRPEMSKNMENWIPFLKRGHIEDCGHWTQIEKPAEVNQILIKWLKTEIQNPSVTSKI
Experimental: Expression of sEH enzyme in the cells was confirmed by detection of increased 14,15-DHET formation activity after 1 μM EET (substrate) treatment.
sEH enzyme converts 14,15-EET to 14,15-DHET, so differential levels of 14,15-DHET will reflect sEH activity. After addition of 1 μM 14,15-EET to H9c2 cells, ˜250 ng/ml 14,15-DHET was formed in cell media in 30 min and 4.5-fold higher level of 14,15-DHET was formed when the EET level was increased from 1 μM to 5 μM, verifying EET-dose-dependent 14,15-DHET formation by rat H9c2 cardiomyocyte cells.

recombinant sEH = biological target: T2, recombinant sEH (Homo sapiens, UniProt P34913); test: Inhibition of EET-dependent sEH activity, reconstituted system; type: biochemical
T2 sequence (P34913 1-555): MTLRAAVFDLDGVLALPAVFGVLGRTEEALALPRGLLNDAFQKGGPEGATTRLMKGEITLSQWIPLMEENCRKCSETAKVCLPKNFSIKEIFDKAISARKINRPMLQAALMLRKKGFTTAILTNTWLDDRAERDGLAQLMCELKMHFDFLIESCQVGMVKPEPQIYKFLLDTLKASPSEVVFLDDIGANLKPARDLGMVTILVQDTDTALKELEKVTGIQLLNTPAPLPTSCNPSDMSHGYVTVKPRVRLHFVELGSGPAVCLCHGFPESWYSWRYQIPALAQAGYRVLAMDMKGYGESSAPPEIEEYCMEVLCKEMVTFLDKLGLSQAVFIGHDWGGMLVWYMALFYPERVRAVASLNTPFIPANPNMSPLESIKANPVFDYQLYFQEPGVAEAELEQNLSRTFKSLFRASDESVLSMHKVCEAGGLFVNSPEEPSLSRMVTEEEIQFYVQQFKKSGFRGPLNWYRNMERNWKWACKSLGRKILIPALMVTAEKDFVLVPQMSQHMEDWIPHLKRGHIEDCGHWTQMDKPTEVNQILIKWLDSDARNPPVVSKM

[1] = biological target: T3, sEH in human kidney cells (ACHN) (Homo sapiens, UniProt P34913); test: Inhibition of EET-dependent sEH activity in kidney cells; type: cell-based; conditions: EET 1 μM
T3 construct: recombinant sEH and human kidney cells (ACHN); endogenous in cells; host or cells: ACHN human kidney cells
T3 sequence (P34913 1-555): T2 sequence (P34913 1-555)

SMILES	14,15-DHET formed in cell media (sEH enzyme in H9c2 cells; 1 μM 14,15-EET, 30 min)	higher level of 14,15-DHET formed (sEH enzyme in H9c2 cells; EET level increased from 1 μM to 5 μM)	EET-dependent sEH activity (recombinant sEH; EET 1 μM, reconstituted system with recombinant sEH)	inhibitor of the sEH activity (overall statement) (recombinant sEH; recombinant sEH and ACHN cells)	EET-dependent sEH activity [1]
CCCCCC1OC1C/C=C\C/C=C\C/C=C\CCCC(=O)O (centres unmarked) [14,15-EET]	~250 ng/mL	4.5 fold			
C=CCc1ccc(O)c(-c2ccc(O)c(CC=C)c2)c1 [Honokiol]			inhibited	potent inhibitors	inhibited
